From patent US7214495B2, “Screening method” (Takeda Pharmaceutical Company Limited, priority 2002, dated 2007)

Key:
[1] = tested on: p44/42 MAP kinase in MIN6 cells; test: MAP kinase activation (western blot) in MIN6 cells; format: cell-based, mouse; conditions: PD98059 50 μM during preincubation/incubation; 5 minutes
Method: The medium used was 4.5 g/l of glucose-containing Dulbecco's Modified Eagle Medium (DMEM, Invitrogen, Inc.) supplemented with 15% fetal calf serum (ThermoTrace, Inc.), 5.5 μM 2-mercaptethanol (Invitrogen, Inc.), 20 mM HEPES pH 7.3, 100 U/ml penicillin and 100 μg/ml streptomycin. The mouse pancreatic β cell line MIN6 cells were plated in a 12-well plate at a density of 2×10^5/well and incubated overnight. On the following morning, the medium was exchanged and incubation was continued overnight. The medium was again exchanged on the following morning. After incubation for 3 hours, preincubation was carried out in 22 mM glucose-containing KRBH for an hour. Various fatty acids were dissolved in KRBH (22 mM glucose) at a density of 10 μM followed by incubation for 2.5 minutes (or 5 minutes). MAPK inhibitor (PD98059) was added to KRBH in a concentration of 50 μM during the preincubation/incubation. After lysis/extraction in a sample buffer (TEFCO, Inc.), the cells were separated on SDS-PAGE and analyzed by western blotting using PhosphoPlus p44/42 MAP kinase (Thr202/Tyr204) Antibody Kit (Cell Signaling Technology, Inc.). […] The activation of MAPK occurred by the fatty acids showing the agonist activity in MIN6 as well as in the GPR40-expressed CHO cells. Thus, it was strongly supported that GPR40 would take part in MIN6 stimulation of fatty acids at least in part.

[2] = tested on: mouse GPR40-GFP fusion protein; test: Expression of mouse GPR40-GFP fusion protein in CHO cells after siRNA introduction (enzyme immunoassay); format: cell-based; conditions: siRNA 2.86 pmols/0.5 μl or 8.57 pmols/1.5 μl, one day
Method: Mouse GPR40-GFP fusion protein-expressed CHO cells prepared by publicly known methods were plated in a 96-well plate at a density of 3×10^4/well, followed by incubation for a day. The siRNA (Dharmacon, Inc.) having various sequences, which was prepared according to the report by Elbasir et al. (Nature 411 (6836), 494–498 (2001)) using HVJ Envelope VECTOR KIT GenomONE™ (Ishihara Sangyo Kaisha, LTD.), was introduced into the cells (in a concentration of 2.86 pmols/0.5 μl or 8.57 pmols/1.5 μl), incubation followed for further one day. The expression level of mouse GPR40-GFP was detected by enzyme immunoassay as shown below. After the culture supernatant was discarded and the cells were washed with HBSS (Invitrogen), the cells were immobilized on 0.01% glutaraldehyde (Wako Pure Chemical) for 5 minutes, followed by blocking with 2% BSA-containing PBS (Takara Shuzo). Anti-GFP monoclonal antibody 3E6 (Nippon Gene) diluted to 500-fold was added to the cells. After incubation at room temperature for 2 hours, the cells were washed and HRP-labeled anti-mouse IgG antibody (ICN) diluted to 500-fold was added thereto followed by incubation at room temperature for 2 hours. After washing, TMB Microwell peroxidase substrate (Funakoshi) was added to the cells. After incubation for 30 minutes, sulfuric acid was added to stop the color-forming reaction and absorbance was measured at 450 nm.

[3] = tested on: mouse GPR40 mRNA; test: Mouse GPR40 mRNA expression in MIN6 after siRNA introduction; format: cell-based; conditions: 2 days after introduction; vs random sequence siRNA
Method: MIN6 cells were plated in a 24-well plate and incubated for a day. Based on the method of EXAMPLE 18, m40i103 or Scramble II duplex siRNA, which was a random sequence siRNA, was then introduced using HVJ Envelope VECTOR KIT GenomONE. After incubation for 2 days, the total RNA of the same cells was prepared in a manner similar to EXAMPLE 7, using Isogen (Nippon Gene K. K.), following the manual attached. Using as a primer 100 ng of random hexamer based on 1 μg of the resulting total RNA, cDNA was synthesized using SuperScriptII reverse transcriptase (Invitrogen, Inc.), which was lysed in 40 μl of TE buffer (pH 8.0). The expression levels of mouse GPR40 and mouse GAPDH mRNA were determined by the method described in EXAMPLE 4.

Row | Compound | effect on fatty acid-induced activation of MAPK in MIN6 [1] | expression level of GPR40-GFP (absorbance at 450 nm) [2] | expression of GPR40 mRNA (GPR40/GAPDH) in MIN6 [3]
1 | COc1cccc(-c2cc(=O)c3ccccc3o2)c1N [PD98059] | almost suppressed |  | 
2 | m40i256: mouse GPR40-specific siRNA; sense strand SEQ ID NO: 36, antisense strand SEQ ID NO: 37 (sense CUUGUUAGCCAUCCGAGGCNN; antisense NNGAACAATCGGTAGGCTCCG; chemistry not given here; one strand is listed 3' to 5') |  | reduction in the expression level | 
3 | m40i103: mouse GPR40-specific siRNA; sense strand SEQ ID NO: 34, antisense strand SEQ ID NO: 35 (sense CGCCAGUUGUGACAUUCUUNN; antisense NNGCGGUCAACACUGUAAGAA; chemistry not given here; one strand is listed 3' to 5') |  | reduction in the expression level | decreased
